Results taken from patent US8592470B2 (Eisai R&D Management Co., Ltd., priority 2012, dated 2013).
pIC50: −log10 of the molar value.

Tests used:
[1] = molecular target: T1, CYP2D6 (Homo sapiens, UniProt P10635); assay: Time-dependent CYP inhibition (Method 1), human hepatic microsome; type: in vitro ADME; conditions: 30 min pre-incubation at 37° C., bufuralol, average, n = 2
T1 construct: human hepatic microsomal fraction containing CYP; from tissue; host or cells: human liver microsomes
Procedure: (§1) Competitive inhibition of CYP was also tested as Method 2. […] The test substance was added to an enzyme solution (containing human hepatic microsome (0.2 mg/mL), 100 mM Kpi and 0.1 mM EDTA), and pre-incubated for 30 minutes at 37° C. in the presence of or absence of the coenzyme. The final concentration of the test substance was set at 0.1, 0.2, 0.4, 0.5, 1, 2, 10 or 50 μM. A NADPH generating system (60 mM MgCl2 solution containing 3.6 mM β-NADP^+, 90 mM glucose-6-phosphate and 1 Unit/mL glucose-6-phosphate dehydrogenase, incubated for 5 minutes to generate NADPH) was used as the coenzyme. After pre-incubation, part of the reaction solution was collected, diluted 10 times by mixing with a model substrate solution and the NADPH generating system, and then incubated for 10 minutes at 37° C. An equal amount of a mixed solution of acetonitrile and methanol (1:1, containing 0.05 μM dextrophan or 0.05 μM propranolol as an internal standard) was added to terminate the reaction, and metabolites of the model substrate in the reaction solution were measured by LC-MS/MS. A similar test was also performed with no test substance added as a control test. The ratio relative to the amount of model substrate metabolites in the control test was given as residual activity. The ratio of residual activity in the presence of NADPH relative to residual activity in the absence of NADPH was evaluated, and the ratio of 80% or less was defined “+”, while the ratio of above 80% was defined as “−”. [table]

[2] = molecular target: T2, CYP2C9 (Homo sapiens, UniProt P11712); assay: as above; type: in vitro ADME; conditions: 30 min pre-incubation at 37° C., tolbutamide, average, n = 2
T2 construct: human hepatic microsomal fraction containing CYP; from tissue; host or cells: human liver microsomes
Procedure: as §1

[3] = molecular target: T3, CYP1A2 (Homo sapiens, UniProt P05177); assay: as above; type: in vitro ADME; conditions: 30 min pre-incubation at 37° C., phenacetin, average, n = 2
T3 construct: human hepatic microsomal fraction containing CYP; from tissue; host or cells: human liver microsomes
T3 sequence (P05177 1-516): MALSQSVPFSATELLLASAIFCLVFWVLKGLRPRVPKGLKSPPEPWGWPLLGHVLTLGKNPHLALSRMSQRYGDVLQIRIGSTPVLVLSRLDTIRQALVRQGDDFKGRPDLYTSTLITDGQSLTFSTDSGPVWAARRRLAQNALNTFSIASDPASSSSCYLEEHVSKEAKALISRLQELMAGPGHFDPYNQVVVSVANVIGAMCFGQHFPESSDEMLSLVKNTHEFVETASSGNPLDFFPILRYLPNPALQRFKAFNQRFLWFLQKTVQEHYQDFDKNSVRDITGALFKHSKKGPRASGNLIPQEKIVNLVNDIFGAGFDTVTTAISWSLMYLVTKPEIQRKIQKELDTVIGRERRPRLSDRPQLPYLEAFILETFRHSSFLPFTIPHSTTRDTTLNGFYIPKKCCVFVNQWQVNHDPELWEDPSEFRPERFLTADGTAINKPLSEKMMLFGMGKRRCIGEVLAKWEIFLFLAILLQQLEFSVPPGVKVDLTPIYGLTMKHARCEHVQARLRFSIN
Procedure: as §1

[4] = molecular target: T4, CYP3A4 (Homo sapiens, UniProt P08684); assay: as above; type: in vitro ADME; conditions: 30 min pre-incubation at 37° C., midazolam, average, n = 2
T4 construct: human hepatic microsomal fraction containing CYP; from tissue; host or cells: human liver microsomes
Procedure: as §1

[5] = molecular target: T1, CYP2D6; assay: Competitive CYP inhibition (Method 2), human hepatic microsome; type: in vitro ADME; conditions: bufuralol 10 μM, n = 2, read-out: IC50 score, CYP2D6
Procedure: (§2) The test substance was added at a final concentration of 1 or 10 μM to an enzyme solution (containing human hepatic microsome (0.2 mg/mL), 100 mM Kpi and 0.1 mM EDTA) containing a model substrate solution, and incubated for 10 minutes at 37° C. in the presence of an NADPH generating system. An equal amount of a mixed solution of acetonitrile and methanol (1:1, containing 0.05 μM dextrophan or 0.05 μM propranolol as an internal standard) was added to terminate the reaction, and metabolites of the model substrate in the reaction solution were measured by LC-MS/MS. A similar test was performed without addition of the test substance as a control test. The inhibition rate was determined from the amounts of model substrate metabolites with and without addition of the test substance at each test substance concentration, and the IC50 value was calculated from the inhibition rate (calculation method in accordance with Xenobiotica, 1999, 29(1), 53-75). […] [table]

[6] = molecular target: T2, CYP2C9; assay: as above; type: in vitro ADME; conditions: human liver microsomes, probe tolbutamide 100 μM, n = 2, read-out: IC50 score, CYP2C9
Procedure: as §2

[7] = molecular target: T3, CYP1A2; assay: as above; type: in vitro ADME; conditions: phenacetin 10 μM, n = 2, read-out: IC50 score, CYP1A2
Procedure: as §2

[8] = molecular target: T5, CYP2C19 (Homo sapiens, UniProt P33261); assay: as above; type: in vitro ADME; conditions: S-mephenytoin 40 μM, n = 2, read-out: IC50 score, CYP2C19
T5 construct: human hepatic microsomal fraction containing CYP; from tissue; host or cells: human liver microsomes
Procedure: as §2

[9] = molecular target: T6, endothelin receptor A (EDNRA) (Homo sapiens, UniProt P25101); assay: Suppression of endothelin-induced Ca2+ elevation in EDNRA/293 cells; type: cell-based; conditions: 0.03, 0.1 or 0.3 nM endothelin, FIG. 2 and FIG. 3
T6 construct: The protein coding region of human derived EDNRA (gene number NM_001957.2) was transduced; expressed in transfected cells
T6 sequence (P25101 21-427): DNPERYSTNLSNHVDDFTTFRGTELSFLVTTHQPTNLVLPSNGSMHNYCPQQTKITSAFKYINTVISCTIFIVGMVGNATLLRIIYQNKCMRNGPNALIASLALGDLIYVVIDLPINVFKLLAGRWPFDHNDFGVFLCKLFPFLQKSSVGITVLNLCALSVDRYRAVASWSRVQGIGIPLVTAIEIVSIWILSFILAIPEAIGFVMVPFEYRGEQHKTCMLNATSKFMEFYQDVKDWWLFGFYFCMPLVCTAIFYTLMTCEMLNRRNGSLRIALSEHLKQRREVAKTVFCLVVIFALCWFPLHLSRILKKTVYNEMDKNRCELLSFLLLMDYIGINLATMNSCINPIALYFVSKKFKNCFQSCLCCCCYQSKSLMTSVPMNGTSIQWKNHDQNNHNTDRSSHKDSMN
Excerpt: The protein coding region of human derived EDNRA (gene number NM_001957.2) was transduced into HEK-293 (Human Embryonic Kidney, ATCC No. CRL-1573) cells with a murine leukemia retrovirus vector, to prepare a cell line stably expressing EDNRA (EDNRA/293 cells). DMEM (Dulbecco's Modified Eagle Medium) supplemented with 10% fetal bovine serum and penicillin and streptomycin was used as the culture medium.
One day before measurement, the EDNRA/293 cells were inoculated on a 384-well plate at 5000 cells/well. On the day of measurement, a fluorescent reagent for calcium measurement (Calcium4, Molecular Device) dissolved in Hanks balanced buffer solution was added to each well, and allowed standing for about 1 hour.
Endothelin, an EDNRA ligand (activator) was applied to the wells not treated with the specimens, and the resulting activation (calcium elevation) reaction was detected by a measuring instrument (FDSS7000, Hamamatsu Photonics) to obtain a dose-dependent activation reaction as shown in FIG. 1. At doses of 1 nM or more, the activation reaction became almost saturated. For this reason, the doses of endothelin used for detection in the suppression reactions below were set at 0.03, 0.1 or 0.3 nM.

[10] = molecular target: T4, CYP3A4; assay: Competitive CYP inhibition (Method 2), human hepatic microsome; type: in vitro ADME; conditions: midazolam 3 μM, n = 2, read-out: IC50 score, CYP3A4
Procedure: The inhibition rate was determined from the amounts of model substrate metabolites with and without addition of the test substance at each test substance concentration, and the IC50 value was calculated from the inhibition rate (calculation method in accordance with Xenobiotica, 1999, 29(1), 53-75).

[11] = molecular target: T5, CYP2C19; assay: Time-dependent CYP inhibition (Method 1), human hepatic microsome; type: in vitro ADME; conditions: 30 min pre-incubation at 37° C., S-mephenytoin, average, n = 2

T2 sequence (P11712 whole entry): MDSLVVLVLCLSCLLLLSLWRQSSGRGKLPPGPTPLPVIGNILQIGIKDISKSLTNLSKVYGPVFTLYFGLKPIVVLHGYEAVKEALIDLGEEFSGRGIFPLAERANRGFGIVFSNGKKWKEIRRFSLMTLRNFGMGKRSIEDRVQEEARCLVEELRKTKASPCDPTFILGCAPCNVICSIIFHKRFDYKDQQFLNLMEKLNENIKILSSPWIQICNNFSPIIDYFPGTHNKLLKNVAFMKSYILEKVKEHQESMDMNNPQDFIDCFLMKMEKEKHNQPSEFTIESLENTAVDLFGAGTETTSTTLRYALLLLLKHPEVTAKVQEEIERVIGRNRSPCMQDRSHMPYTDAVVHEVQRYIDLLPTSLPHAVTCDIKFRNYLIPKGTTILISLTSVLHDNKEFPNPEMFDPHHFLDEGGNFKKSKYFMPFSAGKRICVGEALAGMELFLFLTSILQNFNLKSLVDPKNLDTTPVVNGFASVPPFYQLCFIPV
T4 sequence (P08684 whole entry): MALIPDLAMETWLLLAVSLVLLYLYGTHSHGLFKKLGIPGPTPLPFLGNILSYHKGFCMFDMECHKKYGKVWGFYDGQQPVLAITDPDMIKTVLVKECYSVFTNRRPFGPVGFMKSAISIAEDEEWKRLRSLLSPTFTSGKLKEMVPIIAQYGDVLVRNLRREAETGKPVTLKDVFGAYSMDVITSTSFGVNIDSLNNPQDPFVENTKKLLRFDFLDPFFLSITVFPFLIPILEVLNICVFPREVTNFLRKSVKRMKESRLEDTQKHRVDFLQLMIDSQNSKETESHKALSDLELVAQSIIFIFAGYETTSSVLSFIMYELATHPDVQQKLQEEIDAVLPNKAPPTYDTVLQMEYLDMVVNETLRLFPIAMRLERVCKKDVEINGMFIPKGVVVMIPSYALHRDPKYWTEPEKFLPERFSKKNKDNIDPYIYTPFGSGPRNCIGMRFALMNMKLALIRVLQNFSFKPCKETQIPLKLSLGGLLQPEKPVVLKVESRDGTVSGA
T5 sequence (P33261 whole entry): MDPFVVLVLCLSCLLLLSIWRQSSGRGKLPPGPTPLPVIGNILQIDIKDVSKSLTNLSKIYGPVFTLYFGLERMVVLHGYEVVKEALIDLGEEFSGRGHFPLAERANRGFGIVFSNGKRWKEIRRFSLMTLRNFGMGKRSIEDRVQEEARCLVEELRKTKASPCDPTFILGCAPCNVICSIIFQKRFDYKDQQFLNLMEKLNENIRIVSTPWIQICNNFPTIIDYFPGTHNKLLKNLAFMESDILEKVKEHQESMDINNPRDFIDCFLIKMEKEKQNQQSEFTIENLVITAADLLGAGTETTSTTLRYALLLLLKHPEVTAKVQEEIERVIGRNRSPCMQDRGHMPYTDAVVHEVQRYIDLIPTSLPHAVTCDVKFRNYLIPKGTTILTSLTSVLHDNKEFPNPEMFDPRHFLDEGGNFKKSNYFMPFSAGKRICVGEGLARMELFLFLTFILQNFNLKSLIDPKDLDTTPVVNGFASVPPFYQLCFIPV
T1 sequence (P10635 whole entry): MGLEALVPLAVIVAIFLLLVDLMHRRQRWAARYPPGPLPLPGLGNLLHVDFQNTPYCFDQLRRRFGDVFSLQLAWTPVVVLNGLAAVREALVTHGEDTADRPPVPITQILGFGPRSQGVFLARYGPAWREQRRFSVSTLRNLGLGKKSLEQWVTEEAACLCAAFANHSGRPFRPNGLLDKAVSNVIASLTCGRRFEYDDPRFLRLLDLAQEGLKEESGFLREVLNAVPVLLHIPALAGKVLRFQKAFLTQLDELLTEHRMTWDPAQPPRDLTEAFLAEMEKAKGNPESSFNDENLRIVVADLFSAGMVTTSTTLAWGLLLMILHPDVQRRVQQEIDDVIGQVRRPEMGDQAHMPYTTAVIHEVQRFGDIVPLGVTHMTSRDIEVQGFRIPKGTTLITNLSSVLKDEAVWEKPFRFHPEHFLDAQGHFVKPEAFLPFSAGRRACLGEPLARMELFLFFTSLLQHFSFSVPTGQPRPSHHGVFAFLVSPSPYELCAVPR

SMILES | Ratio of residual CYP2D6 activity in presence of NADPH relative to absence of NADPH ([1]; test substance 10 μM) | Ratio of residual CYP2D6 activity in presence of NADPH relative to absence of NADPH ([1]; test substance 50 μM) | Ratio of residual CYP2C9 activity in presence of NADPH relative to absence of NADPH ([2]; test substance 10 μM) | Ratio of residual CYP2C9 activity in presence of NADPH relative to absence of NADPH ([2]; test substance 50 μM) | Ratio of residual CYP1A2 activity in presence of NADPH relative to absence of NADPH ([3]; test substance 10 μM) | Ratio of residual CYP1A2 activity in presence of NADPH relative to absence of NADPH ([3]; test substance 50 μM) | Ratio of residual CYP3A4 activity in presence of NADPH relative to absence of NADPH ([4]; test substance 10 μM) | Ratio of residual CYP3A4 activity in presence of NADPH relative to absence of NADPH ([4]; test substance 50 μM) | pIC50 [5] | IC50 at 10 min [6] [µM] | pIC50 [7] | pIC50 [8] | Suppression of activation (calcium elevation) reaction by endothelin [9] | pIC50 [10] | Ratio of residual CYP2C19 activity in presence of NADPH relative to absence of NADPH ([11]; test substance 10 μM) | Ratio of residual CYP2C19 activity in presence of NADPH relative to absence of NADPH ([11]; test substance 50 μM)
Cc1cc2c(cc1CC(=O)c1sccc1S(=O)(=O)Nc1onc(C)c1Cl)COC2 [Example 1, N-(4-chloro-3-methyl-1,2-oxazol-5-yl)-2-[2-(6-methyl-1,3-dihydro-2-benzofuran-5-yl)acetyl]thiophene-3-sulfonamide] | − (the ratio of above 80% was defined as “−”) | − (the ratio of above 80% was defined as “−”) | − (the ratio of above 80% was defined as “−”) | − (the ratio of above 80% was defined as “−”) | − (the ratio of above 80% was defined as “−”) | − (the ratio of above 80% was defined as “−”) | − (the ratio of above 80% was defined as “−”) | + (the ratio of 80% or less was defined “+”) | < 5.00 | < 1 | < 5.00 | < 5.00 | suppressed the activation reaction | < 5.00 | − (the ratio of above 80% was defined as “−”) | − (the ratio of above 80% was defined as “−”)
Cc1cc2c(cc1CC(=O)c1sccc1S(=O)(=O)Nc1onc(C)c1Cl)OCO2 [Sitaxentan, N-(4-chloro-3-methyl-1,2-oxazol-5-yl)-2-[2-(6-methyl-2H-1,3-benzodioxol-5-yl)acetyl]thiophene-3-sulfonamide, reference compound] |  |  |  |  |  |  |  |  | < 5.00 | < 1 | < 5.00 | 5.00 to 6.00 | suppressed the activation reaction |  |  | 
